Experimental findings from article PMC11358092, “Caspofungin enhances the potency of rifampin against Gram-negative bacteria” (Frontiers in Microbiology, 2024) are described below.

Where a name gives a salt, the structure may show the parent alone.

The subject of this test is E. coli MG1655. Briefly: High-throughput screening of FDA-approved drug library for antibiotic adjuvants (growth inhibition, OD600). The test is classed as cell-based, Escherichia coli. The note with it: library drug alone, LB medium, 96-well, 8 h static culture at 37°C, relative to PMBN (positive) and DMSO (negative) controls, %, table head prints no unit. The method, then:
To screen for antibiotic adjuvants against GNB, […] library drugs or polymyxin B nonapeptide (PMBN, positive control) or dimethyl sulfoxide (DMSO, negative control). After 8 h of static culture at 37°C, the optical density at 600 nm (OD600) was measured using a microplate reader. Percentage inhibition was calculated as (ODN – ODX)/(ODN – ODP) × 100%, where ODX is the OD600 value for a test treated with drug X, and ODP and ODN are the OD600 values for the positive and negative control, respectively.

Regarding `CC[C@H]1OC(=O)[C@H](C)[C@@H](O[C@H]2C[C@@](C)(OC)[C@@H](O)[C@H](C)O2)[C@H](C)[C@@H](O[C@@H]2O[C@H](C)C[C@H](N(C)C)[C@H]2O)[C@](C)(O)C[C@@H](C)CN(C)[C@H](C)[C@@H](O)[C@]1(C)O` [Azithromycin dihydrate], the “Growth inhibition, Compound” value was found to be 111%. For the molecule `CO/N=C1\C[C@]2(C[C@@H]3C[C@@H](C/C=C(\C)C[C@@H](C)/C=C/C=C4\CO[C@@H]5[C@H](O)C(C)=C[C@@H](C(=O)O3)[C@]45O)O2)O[C@H](/C(C)=C/C(C)C)[C@H]1C` [Moxidectin], the “Growth inhibition, Compound” value stood at 32%. To `CC(C)(O/N=C(\C(=O)N[C@@H]1C(=O)N2C(C(=O)[O-])=C(C[n+]3ccccc3)CS[C@H]12)c1csc(N)n1)C(=O)O` [Ceftazidime] belongs 53%. To `N[C@@H]1CN(c2c(F)cc3c(=O)c(C(=O)O)cn([C@@H]4C[C@@H]4F)c3c2Cl)CC12CC2.N[C@@H]1CN(c2c(F)cc3c(=O)c(C(=O)O)cn([C@@H]4C[C@@H]4F)c3c2Cl)CC12CC2.O.O.O` [Sitafloxacin Hydrate] belongs 101%; to `CN[C@@H]1[C@H](O)[C@H](NC)[C@H]2O[C@@]3(O)C(=O)C[C@@H](C)O[C@H]3O[C@@H]2[C@H]1O.Cl.Cl.O.O.O.O.O` [Spectinomycin dihydrochloride pentahydrate], 96%; to `O=c1[nH]c(=O)n([C@H]2C[C@H](O)[C@@H](CO)O2)cc1F` [Floxuridine], 87%.

With `Oc1cc(Cl)ccc1Oc1ccc(Cl)cc1Cl` [Triclosan], the “Growth inhibition, Compound” value was determined as 79%. To `NC[C@H]1O[C@H](O[C@H]2[C@H](O)[C@@H](O[C@H]3O[C@H](CO)[C@@H](O)[C@H](N)[C@H]3O)[C@H](N)C[C@@H]2N)[C@H](O)[C@@H](O)[C@@H]1O` [Kanamycin sulfate] belongs 109%; to `CCCCCCCCCCCCCCCC[N+](C)(C)C` [Cetrimonium bromide], 87%; to `CCN(CC)C(=S)SSC(=S)N(CC)CC` [Disulfiram], 78%. Then `CC[C@H]1OC(=O)[C@H](C)[C@@H](O[C@H]2C[C@@](C)(OC)[C@@H](O)[C@H](C)O2)[C@H](C)[C@@H](O[C@@H]2O[C@H](C)C[C@H](N(C)C)[C@H]2O)[C@](C)(O)C[C@@H](C)CN[C@H](C)[C@@H](O)[C@]1(C)O` [Azathramycin], with 114%; and `O=C(Nc1cc(Cl)cc(Cl)c1O)c1c(O)c(Cl)cc(Cl)c1Cl` [Oxyclozanide], with 52%; and `CN[C@@H]1[C@@H](O)[C@@H](O[C@@H]2[C@@H](O)[C@H](O[C@H]3OC(CN)=CC[C@H]3N)[C@@H](N)C[C@H]2N)OC[C@]1(C)O` [Sisomicin Sulfate], with 105%.

For `C[C@@H]1CN(c2c(F)c(N)c3c(=O)c(C(=O)O)cn(C4CC4)c3c2F)C[C@H](C)N1` [Sparfloxacin], the “Growth inhibition, Compound” value was 96%. `CO/N=C(\C(=O)N[C@@H]1C(=O)N2C(C(=O)OCOC(=O)C(C)(C)C)=C(/C=C\c3scnc3C)CS[C@H]12)c1csc(N)n1` [Cefditoren pivoxil]: the “Growth inhibition, Compound” value came out at 73%. For the molecule `Cc1c(-c2ccccc2)oc2c(C(=O)OCCN3CCCCC3)cccc2c1=O` [Flavoxate hydrochloride], the “Growth inhibition, Compound” value is on record as 95%.

Consider `C[C@H]1c2cccc(O)c2C(=O)C2=C(O)[C@]3(O)C(=O)C(C(N)=O)=C(O)[C@@H](N(C)C)[C@@H]3[C@@H](O)[C@@H]21` [Doxycycline hydrochloride], for which the “Growth inhibition, Compound” value was determined as 114%. To `CC1(C)S[C@@H]2[C@H](NC(=O)Cc3ccccc3)C(=O)N2[C@H]1C(=O)O` [Benzylpenicillin potassium] belongs 55%.

In the case of `C[C@@H]1CC[C@H]2[C@@H](C)C(=O)O[C@@H]3O[C@@]4(C)CC[C@@H]1[C@]32OO4` [Artemisinin], the “Growth inhibition, Compound” value was determined as 40%.
